Laboratory results taken from the NIST ThermoML archive (doi:10.1021/je020178w).

What was measured:
[1] = xn = mol fraction of the nth substance listed; conditions: 308.15 K, 101.3 kPa, Liquid; for viscosity: Capillary tube (Ostwald / Ubbelohde) method
[2] = 308.15 K, 101.3 kPa, Liquid; for viscosity: Capillary tube (Ostwald / Ubbelohde) method

CNC(C)=O [N-methylacetamide] + OCCOCCOCCO
[1]
Conditions	mass density [kg/m3]	viscosity [mPa·s]
x1 = 0.1142	1103.7	21.93
x1 = 0.2059	1095.7	20.39
x1 = 0.3069	1085.6	18.59
x1 = 0.4265	1071.8	16.35
x1 = 0.5415	1056.3	14.01
x1 = 0.6392	1041	11.91
x1 = 0.7266	1025.3	9.98
x1 = 0.8278	1004.5	7.74
x1 = 0.9307	979.5	5.3
x1 = 1	958.9	3.67

CNC(C)=O [N-methylacetamide] + OCCOCCO
[1]
Conditions	mass density [kg/m3]	viscosity [mPa·s]
x1 = 0.1121	1094.4	16.13
x1 = 0.2394	1079.9	14.47
x1 = 0.3419	1067.4	13.11
x1 = 0.4564	1052.2	11.57
x1 = 0.5574	1037.8	10.17
x1 = 0.6538	1023.2	8.8
x1 = 0.7649	1005.3	7.2
x1 = 0.8343	993	6.16
x1 = 0.9252	975.2	4.8
x1 = 1	958.9	3.67

OCCO [1,2-ethanediol]
Conditions	viscosity [mPa·s]
[2]	10.59

OCCOCCOCCO [triethylene glycol] + CNC(C)=O
[1], x2 = 0
Conditions	mass density [kg/m3]	viscosity [mPa·s]
–	1112.1	23.84

CNC(C)=O [N-methylacetamide]
[2]
Conditions	mass density [kg/m3]	viscosity [mPa·s]
–	958.9	3.67

CNC(C)=O [N-methylacetamide] + OCCO
[1]
Conditions	mass density [kg/m3]
x1 = 0.0847	1089.5
x1 = 0.212	1068.3
x1 = 0.3298	1049.4
x1 = 0.4247	1034.9
x1 = 0.5255	1020.5
x1 = 0.6275	1006.3
x1 = 0.7471	990.5
x1 = 0.8412	978.6
x1 = 0.9347	967.3
x1 = 1	958.9

OCCOCCO [diethylene glycol]
[2]
Conditions	mass density [kg/m3]	viscosity [mPa·s]
–	1105.6	17.59

OCCOCCO [diethylene glycol] + CNC(C)=O
[1], x2 = 0
Conditions	mass density [kg/m3]	viscosity [mPa·s]
–	1105.6	17.59

OCCOCCOCCO [triethylene glycol]
[2]
Conditions	mass density [kg/m3]	viscosity [mPa·s]
–	1112.1	23.84
